Activity calls are given as the source filed them. The rule behind the calls is not given here.
Columns and labels:
[1] = system: Escherichia coli; assay: Antimicrobial activity against Escherichia coli ATCC 11230 at 25 ug/disk measured after overnight incubation by disk diffusion method; format: functional; details: read-out: IZ
[2] = system: Bacillus cereus; assay: Antimicrobial activity against Bacillus cereus RSKK 863 at 25 ug/disk measured after overnight incubation by disk diffusion method; format: functional; details: for zone of inhibition at 25 µg/disc: read-out: IZ
[3] = system: Pseudomonas aeruginosa; assay: Antimicrobial activity against Pseudomonas aeruginosa ATCC 27853 at 25 ug/disk measured after overnight incubation by disk diffusion method; format: functional
[4] = system: Salmonella enteritidis; assay: Antimicrobial activity against Salmonella enterica subsp. enterica serovar Enteritidis ATCC 13076 at 25 ug/disk measured after overnight incubation by disk diffusion method; format: functional; details: read-out: IZ
[5] = system: Yersinia enterocolitica; assay: Antimicrobial activity against Yersinia enterocolitica ATCC 1501 at 25 ug/disk measured after overnight incubation by disk diffusion method; format: functional; details: for zone of inhibition at 25 µg/disc: read-out: IZ
[6] = system: Listeria monocytogenes; assay: Antimicrobial activity against Listeria monocytogenes ATCC 7644 at 25 ug/disk measured after overnight incubation by disk diffusion method; format: functional
[7] = system: Staphylococcus aureus; assay: Antimicrobial activity against Staphylococcus aureus ATCC 25923 at 25 ug/disk measured after overnight incubation by disk diffusion method; format: functional; details: for zone of inhibition at 25 µg/disc: read-out: IZ
[8] = system: Staphylococcus aureus; assay: Antimicrobial activity against Staphylococcus aureus ATCC 25923 measured after overnight incubation by disk diffusion method; format: functional, organism-based
[9] = system: Escherichia coli; details: ATCC 11230
Description: Antimicrobial activity against Escherichia coli ATCC 11230 measured after overnight incubation by disk diffusion method

[10] = system: Bacillus cereus; assay: Antimicrobial activity against Bacillus cereus RSKK 863 measured after overnight incubation by disk diffusion method; format: functional, organism-based
[11] = system: Listeria monocytogenes; assay: Antimicrobial activity against Listeria monocytogenes ATCC 7644 measured after overnight incubation by disk diffusion method; format: functional
[12] = system: Pseudomonas aeruginosa; assay: Antimicrobial activity against Pseudomonas aeruginosa ATCC 27853 measured after overnight incubation by disk diffusion method; format: functional
[13] = system: Yersinia enterocolitica; assay: Antimicrobial activity against Yersinia enterocolitica ATCC 1501 measured after overnight incubation by disk diffusion method; format: functional
[14] = system: Salmonella enteritidis; assay: Antimicrobial activity against Salmonella enterica subsp. enterica serovar Enteritidis ATCC 13076 measured after overnight incubation by disk diffusion method; format: functional

Question: With `Cc1ccc(S(=O)(=O)n2nnnc2[Se]c2ccccc2Cl)cc1` as the compound, how does the zone of inhibition at 25 µg/disc [1] read?
Answer: 7.4 mm

Question: What about the zone of inhibition at 25 µg/disc [2] of the same compound?
Answer: 3.2 mm

Question: What about the zone of inhibition at 25 µg/disc ([3]; read-out: IZ) of the same compound?
Answer: 4.4 mm

Question: What about the zone of inhibition at 25 µg/disc [4] of the same compound?
Answer: 7 mm

Question: And the zone of inhibition at 25 µg/disc [5]?
Answer: 5.6 mm

Question: And the “inhibition zone (IZ)” value [6]?
Answer: inactive

Question: What about the zone of inhibition at 25 µg/disc [7] of the same compound?
Answer: 4.2 mm

Question: `Cc1ccc(S(=O)(=O)n2nnnc2[Se]c2ccccc2C)cc1` was tested. Which zone of inhibition at 25 µg/disc [1] did it give?
Answer: 5.4 mm

Question: And the zone of inhibition at 25 µg/disc [2]?
Answer: 4.4 mm

Question: What about the “inhibition zone (IZ)” value [3] of the same compound?
Answer: inactive

Question: And the zone of inhibition at 25 µg/disc [4]?
Answer: 2.8 mm

Question: What about the “inhibition zone (IZ)” value [5] of the same compound?
Answer: inactive

Question: What about the “inhibition zone (IZ)” value [6] of the same compound?
Answer: inactive

Question: And the zone of inhibition at 25 µg/disc [7]?
Answer: 5.2 mm

Question: Which results are given for `Cc1ccc(S(=O)(=O)n2nnnc2[Se]c2ccc(I)cc2)cc1`?
Answer: zone of inhibition at 25 µg/disc [1]: 3.2 mm; inhibition zone (IZ) [2]: inactive; inhibition zone (IZ) [3]: inactive; zone of inhibition at 25 µg/disc [4]: 5.8 mm; inhibition zone (IZ) [5]: inactive; inhibition zone (IZ) [6]: inactive; zone of inhibition at 25 µg/disc [7]: 8.2 mm

Question: With `Cc1ccc([Se]c2nnnn2S(=O)(=O)c2ccc(C)cc2)cc1` as the compound, how does the zone of inhibition at 25 µg/disc [1] read?
Answer: 4.6 mm

Question: What about the zone of inhibition at 25 µg/disc [2] of the same compound?
Answer: 2.8 mm

Question: And the “inhibition zone (IZ)” value [3]?
Answer: inactive

Question: And the zone of inhibition at 25 µg/disc [4]?
Answer: 3.2 mm

Question: What about the “inhibition zone (IZ)” value [5] of the same compound?
Answer: inactive

Question: What about the zone of inhibition at 25 µg/disc ([6]; read-out: IZ) of the same compound?
Answer: 5 mm

Question: What about the “inhibition zone (IZ)” value [7] of the same compound?
Answer: inactive

Question: Which results are given for `Cc1ccnc(NS(=O)(=O)c2ccc(N)cc2)n1` [SULFAMERAZINE]?
Answer: inhibition zone (IZ) [8]: inactive; IZ [9]: inactive; inhibition zone (IZ) [10]: inactive; inhibition zone (IZ) [11]: 5.1 mm; inhibition zone (IZ) [12]: 4.4 mm; inhibition zone (IZ) [13]: 6.1 mm; inhibition zone (IZ) [14]: 6.6 mm

Question: Which results are given for `Cc1ccc(S(=O)(=O)n2nnnc2[Se]c2ccc(Cl)cc2)cc1`?
Answer: zone of inhibition at 25 µg/disc [1]: 3.2 mm; inhibition zone (IZ) [2]: inactive; inhibition zone (IZ) [3]: inactive; zone of inhibition at 25 µg/disc [4]: 7.8 mm; zone of inhibition at 25 µg/disc [5]: 3.4 mm; inhibition zone (IZ) [6]: inactive; zone of inhibition at 25 µg/disc [7]: 4.8 mm

Question: Which “inhibition zone (IZ)” value [8] does the source give for `Cc1cc(NS(=O)(=O)c2ccc(N)cc2)no1` [SULFAMETHOXAZOLE] here?
Answer: inactive

Question: What about the “inhibition zone (IZ)” value [10] of the same compound?
Answer: inactive

Question: And the “inhibition zone (IZ)” value [11]?
Answer: 10.9 mm

Question: And the “inhibition zone (IZ)” value [12]?
Answer: 5.5 mm

Question: What about the “inhibition zone (IZ)” value [13] of the same compound?
Answer: inactive

Question: What about the “inhibition zone (IZ)” value [14] of the same compound?
Answer: 7.4 mm

Question: How did the zone of inhibition at 25 µg/disc [1] turn out when `Cc1ccc(S(=O)(=O)n2nnnc2[Se]c2ccc(Br)cc2)cc1` was run?
Answer: 5.4 mm

Question: And the “inhibition zone (IZ)” value [2]?
Answer: inactive

Question: And the “inhibition zone (IZ)” value [3]?
Answer: inactive

Question: What about the zone of inhibition at 25 µg/disc [4] of the same compound?
Answer: 8.2 mm

Question: What about the “inhibition zone (IZ)” value [5] of the same compound?
Answer: inactive

Question: And the “inhibition zone (IZ)” value [6]?
Answer: inactive

Question: What about the zone of inhibition at 25 µg/disc [7] of the same compound?
Answer: 6.2 mm
